In one assay the test system is NHACs. As to the kind of experiment: calcium flux assay. In kind it is cell-based, human. The settings on record: Homo sapiens; for Emax: read-out: (A) % Efficacy. In outline: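 FLIPR fluorescence (ex 470–495 nm, em 515–575 nm) was read before and after compound dispense at the indicated dose. Chondrocytes (NHACs), 2000 cells/well, had been dye-loaded 24 h after plating with Calcium 5 in HBSS/HEPES plus 5 mM probenecid, 1 h, room temperature.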
Background: Calcium flux is commonly read through the fluorescence of an indicator in the cells.

The subject of a further assay is C3H10T1/2 cell line. As to the kind of experiment: alkaline phosphatase assay in C3H10T1/2. In kind it is cell-based. As to conditions: Mus musculus, C3H 10T1/2, 144 h, alkaline phosphatase assay in C3H10T1/2, 6 days; for Emax: read-out: (D) % Efficacy; for IC50: read-out: (D) IC50. The method, then:
To initiate differentiation in C3H10T1/2, Clone 8 (ATCC cat #CCL-226), 4,000 cells were plated/well in 384 Perkin Elmer CellCarrier Ultra plate in DMEM/High glucose (HyClone cat #SH30022.01) containing 10% FBS and 1× Antibiotic/Antimycotic (HyClone cat #SV30079.01). After 24 hours the test compound was then added to each well at the indicated dose. The cultures were grown at 37° C. for 6 days.
To detect the presence of hypertrophic cells, C3H10T1/2 were fixed with 4% paraformaldehyde and Hoeschst dye for 20 minutes, rinsed in PBS, then stained with Fast Blue RR Salt with Naphthol AS-MX Phosphate Alkaline Solution.
The ALP staining was imaged by fluoresecent microscopy, using the 561 wavelength, and/or quantified by high content imagining with the ImageXpress Micro Confocal (Molecular Devices, Sunnyvale, CA). Data analyses were performed with the customized multiwavelength cell-scoring application looking at the number of ALP positive cells per well.

Each structure is given as a SMILES string.

The EC50 is the midpoint of the concentration-response curve. What is called IC50 is the point on the concentration scale where inhibition reaches its midpoint.

Take `Cc1cc([C@@H]2[C@@H]3O[C@@H](C[C@H]3O)[C@H]2C(=O)Nc2cnc(Cl)c(Cl)c2)ccn1` [Example 84, (1S,2S,3R,4S,5R)-N-(5,6-dichloropyridin-3-yl)-5-hydroxy-3-(2-methylpyridin-4-yl)-7-oxabicyclo[2.2.1]heptane-2-carboxamide]: in the assay with NHACs, the EC50 was more than 50 µM and the Emax was found to be 61%. In the assay with C3H10T1/2 cell line, the Emax was 31% and the IC50 was more than 20 µM.

For `Cc1cc([C@H]2[C@H]3O[C@H](C[C@H]3N(C)C)[C@@H]2C(=O)Nc2ccc(Cl)c(Cl)c2)ccn1` [Example 166, (1R,2R,3S,4R,5R)—N-(3,4-dichlorophenyl)-5-(dimethylamino)-3-(2-methylpyridin-4-yl)-7-oxabicyclo[2.2.1]heptane-2-carboxamide], in the assay on NHACs, the EC50 was 24 µM and the Emax was 68%. For the same compound, in the assay on C3H10T1/2 cell line, the Emax turned out to be 0% and the IC50 was more than 20 µM.

Take `Cc1cc([C@H]2[C@H]3O[C@H]([C@@H]4C[C@@H]43)[C@@H]2C(=O)Nc2ccc(Cl)c(Cl)c2)ccn1` [Example 117, (1S,2S,4R,5R,6R,7S)—N-(3,4-dichlorophenyl)-7-(2-methylpyridin-4-yl)-8-oxatricyclo[3.2.1.0^2,4]octane-6-carboxamide]: in the assay on NHACs, the EC50 came out at 3 µM and the Emax came to 177%. In the assay on C3H10T1/2 cell line, the Emax is 59% and the IC50 turned out to be 7 µM.

Take `Cc1cc([C@H]2[C@H]3O[C@H](C[C@@H]3F)[C@@H]2C(=O)Nc2ccc(Cl)c(Cl)c2)ccn1` [Example 105, (1R,2R,3S,4R,5S)—N-(3,4-dichlorophenyl)-5-fluoro-3-(2-methylpyridin-4-yl)-7-oxabicyclo[2.2.1]heptane-2-carboxamide]: in the assay on NHACs, the EC50 stood at 8.2 µM and the Emax came to 106%. In addition, in the assay with C3H10T1/2 cell line, the Emax turned out to be 68% and the IC50 came out at 1.7 µM.

`Cc1cc([C@H]2[C@H]3O[C@H](C[C@H]3NCCO)[C@@H]2C(=O)Nc2ccc(Cl)c(Cl)c2)ccn1` [Example 168, (1R,2R,3S,4R,5R)—N-(3,4-dichlorophenyl)-5-((2-hydroxyethyl)amino)-3-(2-methylpyridin-4-yl)-7-oxabicyclo[2.2.1]heptane-2-carboxamide]: in the assay with NHACs, the concentration for a half-maximal effect (EC50) came out at 0.32 µM and the Emax worked out at 114%. Besides, in the assay on C3H10T1/2 cell line, the Emax is 0% and the IC50 was more than 20 µM.

`Cc1cc([C@@H]2[C@@H]3O[C@@H](C[C@H]3O)[C@H]2C(=O)Nc2ccc(Cl)c(Cl)c2)ccn1` [Example 77c, (1S,2S,3R,4S,5R)-N-(3,4-dichlorophenyl)-5-hydroxy-3-(2-methylpyridin-4-yl)-7-oxabicyclo[2.2.1]heptane-2-carboxamide]: in the assay on NHACs, the EC50 is 13 µM and the Emax amounted to 72%. Moreover, in the assay on C3H10T1/2 cell line, the Emax came to 72% and the IC50 turned out to be 3.9 µM.

With `COc1cc([C@H]2[C@H]3O[C@H](C[C@@H]3O)[C@@H]2C(=O)Nc2ccc(Cl)c(Cl)c2)ccn1` (single isomer, unassigned) [Example 139a], in the assay on NHACs, the EC50 was found to be 25 µM and the Emax came out at 275%. Also, in the assay with C3H10T1/2 cell line, the Emax came out at 54% and the IC50 amounted to 1.8 µM.

On to `O=C(Nc1ccc(Cl)c(Cl)c1)[C@@H]1[C@H](c2ccnc(C(F)(F)F)c2)[C@@H]2O[C@H]1C[C@H]2O` (single isomer, unassigned) [Example 54b], for which, in the assay on NHACs, the EC50 was more than 50 µM and the Emax was 16%. Moreover, in the assay with C3H10T1/2 cell line, the Emax is 46% and the IC50 was more than 20 µM.

For the compound `Cc1ccc([C@H]2[C@H]3O[C@H](C[C@@H]3O)[C@@H]2C(=O)Nc2ccc(Cl)c(Cl)c2)cn1` [Example 138, (1R,2R,3S,4R,5S)—N-(3,4-dichlorophenyl)-5-hydroxy-3-(6-methylpyridin-3-yl)-7-oxabicyclo[2.2.1]heptane-2-carboxamide], in the assay with NHACs, the EC50 is more than 50 µM and the Emax was 0%. In the assay with C3H10T1/2 cell line, the Emax stood at 24% and the IC50 was more than 20 µM.

`Cc1cc([C@H]2[C@H]3O[C@H](C[C@@H]3O)[C@@H]2C(=O)NC2CCN(S(C)(=O)=O)CC2)ccn1` [Example 79, (1R,2R,3S,4R,5S)-5-hydroxy-3-(2-methylpyridin-4-yl)-N-(1-(methylsulfonyl)piperidin-4-yl)-7-oxabicyclo[2.2.1]heptane-2-carboxamide]: in the assay with NHACs, the EC50 is more than 50 µM and the Emax was determined as 113%. In the assay with C3H10T1/2 cell line, the Emax amounted to 34% and the IC50 is more than 20 µM.

On to `Cc1cc([C@@H]2[C@@H]3O[C@@H](C[C@@H]3O)[C@H]2C(=O)Nc2ccc(Cl)c(Cl)c2)ccn1` [Example 181, (1S,2S,3R,4S,5S)—N-(3,4-dichlorophenyl)-5-hydroxy-3-(2-methylpyridin-4-yl)-7-oxabicyclo[2.2.1]heptane-2-carboxamide], for which, in the assay on NHACs, the EC50 came out at 27 µM and the Emax came out at 243%. Moreover, in the assay with C3H10T1/2 cell line, the Emax is 28% and the IC50 is more than 20 µM.

`Cc1ccc([C@H]2[C@H]3O[C@H]([C@@H]4C[C@@H]43)[C@@H]2C(=O)Nc2cnc(Cl)c(Cl)c2)cn1` [Example 74, (1S,2S,4R,5R,6R,7S)—N-(5,6-dichloropyridin-3-yl)-7-(6-methylpyridin-3-yl)-8-oxatricyclo[3.2.1.0^2,4]octane-6-carboxamide]: in the assay with NHACs, the EC50 stood at 7.7 µM and the Emax was determined as 90%. For the same compound, in the assay on C3H10T1/2 cell line, the Emax is 83% and the IC50 was more than 20 µM.

`Cc1cc([C@H]2[C@H](C(=O)Nc3ccc(Cl)c(Cl)c3)[C@H]3O[C@@H]2C[C@@H]3O)ccn1` [Example 77d, (1R,2S,3R,4R,6S)-N-(3,4-dichlorophenyl)-6-hydroxy-3-(2-methylpyridin-4-yl)-7-oxabicyclo[2.2.1]heptane-2-carboxamide]: in the assay on NHACs, the EC50 stood at 33 µM and the Emax was 92%. For the same compound, in the assay with C3H10T1/2 cell line, the Emax stood at 54% and the IC50 is more than 20 µM.

For the compound `O=C(Nc1cnc(Cl)c(Cl)c1)[C@H]1[C@H](c2ccnc(F)c2)[C@@H]2O[C@H]1C[C@H]2O` (single isomer, unassigned) [Example 90b], in the assay on NHACs, the EC50 is more than 50 µM and the Emax turned out to be 44%. In the assay on C3H10T1/2 cell line, the Emax stood at 45% and the IC50 was more than 20 µM.

Turning to `COc1cc([C@H]2[C@H]3O[C@H](C[C@H]3F)[C@@H]2C(=O)Nc2ccc(Cl)c(Cl)c2)ccn1` [Example 165, (1R,2R,3S,4R,5R)—N-(3,4-dichlorophenyl)-5-fluoro-3-(2-methoxypyridin-4-yl)-7-oxabicyclo[2.2.1]heptane-2-carboxamide], in the assay with NHACs, the EC50 was determined as 6 µM and the Emax turned out to be 110%. In addition, in the assay with C3H10T1/2 cell line, the Emax stood at 59% and the IC50 was more than 20 µM.

Take `O=C(Nc1cnc(Cl)c(Cl)c1)[C@H]1[C@@H]2O[C@@H]([C@H]3C[C@H]32)[C@@H]1c1cncnc1` [Example 75, (1S,2S,4R,5R,6R,7S)—N-(5,6-dichloropyridin-3-yl)-7-(pyrimidin-5-yl)-8-oxatricyclo[3.2.1.0^2,4]octane-6-carboxamide]: in the assay with NHACs, the EC50 came out at 4.4 µM and the Emax was found to be 73%. In the assay with C3H10T1/2 cell line, the Emax came to 45% and the 50% inhibitory concentration (IC50) was more than 20 µM.

Regarding `Cn1cc([C@H]2[C@H]3O[C@H](C[C@@H]3O)[C@@H]2C(=O)Nc2ccc(Cl)c(Cl)c2)cn1` [Example 152, (1R,2R,3S,4R,5S)—N-(3,4-dichlorophenyl)-5-hydroxy-3-(1-methyl-1H-pyrazol-4-yl)-7-oxabicyclo[2.2.1]heptane-2-carboxamide], in the assay on NHACs, the EC50 was 12 µM and the Emax worked out at 44%. In addition, in the assay on C3H10T1/2 cell line, the Emax was found to be 61% and the IC50 was 2 µM.

As for `O=C(Nc1ccc(Cl)c(Cl)c1)[C@H]1[C@@H](c2ccnc(C(F)(F)F)c2)[C@H]2O[C@@H]1C[C@@H]2O` (racemic) [Example 54, rac-(1R,2S,3S,4R,5S)—N-(3,4-dichlorophenyl)-5-hydroxy-3-(2-(trifluoromethyl)pyridin-4-yl)-7-oxabicyclo[2.2.1]heptane-2-carboxamide], in the assay on NHACs, the EC50 is more than 50 µM and the Emax came out at 22%. Further, in the assay on C3H10T1/2 cell line, the Emax stood at 35% and the IC50 was more than 20 µM.

As to `COc1cc([C@@H]2[C@@H]3O[C@@H](C[C@H]3O)[C@H]2C(=O)Nc2ccc(Cl)c(Cl)c2)ccn1` (single isomer, unassigned) [Example 139b], in the assay on NHACs, the EC50 amounted to 26 µM and the Emax is 141%. Besides, in the assay on C3H10T1/2 cell line, the Emax is 82% and the IC50 is 7.7 µM.

On to `O=C(Nc1ccc(Cl)c(Cl)c1)[C@@H]1[C@@H](c2cnc(C(F)(F)F)nc2)[C@H]2O[C@@H]1C[C@@H]2O` [Example 154, (1R,2R,3S,4R,5S)—N-(3,4-dichlorophenyl)-5-hydroxy-3-(2-(trifluoromethyl)pyrimidin-5-yl)-7-oxabicyclo[2.2.1]heptane-2-carboxamide], for which, in the assay on NHACs, the EC50 was 26 µM and the Emax turned out to be 236%. Further, in the assay with C3H10T1/2 cell line, the Emax was 75% and the IC50 turned out to be 4 µM.

In the case of `COc1cc([C@H]2[C@H]3O[C@H](C[C@@H]3F)[C@@H]2C(=O)Nc2ccc(Cl)c(Cl)c2)ccn1` [Example 103, (1R,2R,3S,4R,5S)—N-(3,4-dichlorophenyl)-5-fluoro-3-(2-methoxypyridin-4-yl)-7-oxabicyclo[2.2.1]heptane-2-carboxamide], in the assay on NHACs, the EC50 came out at 24 µM and the Emax was determined as 153%. For the same compound, in the assay with C3H10T1/2 cell line, the Emax came to 79% and the IC50 amounted to 10 µM.

Values taken from US12209096B2, “Compounds and compositions for inducing chondrogenesis” (NOVARTIS AG, priority 2017, dated 2025).
